Read-outs that look alike come from different tables or passages of the source.
System: participants with idiopathic pulmonary fibrosis (IPF)
[1] = 40 mg (n = 22), 12 weeks, listed as Cmpd 5
[2] = 80 mg (n = 23), 12 weeks, listed as Cmpd 5
[3] = 160 mg (n = 22), 12 weeks, listed as Cmpd 5
[4] = 320 mg (n = 22), treatment up to 40 weeks

Source text: The groups were stratified for the use of nintedanib or pirfenidone. The groups were screened 28 days before the Day 1 of the study. At Day 1, baseline values were collected. During week 12, the subjects received the last dose, and the study was ended at week 14. Primary and secondary endpoints of the study included safety, tolerability, and PK. Exploratory endpoints included change in FVC over 12 weeks; High Resolution CT-based Quantitative Lung Fibrosis (QLF) imaging; patient-reported outcome (PRO): VAS-cough severity; and effect on selected biomarkers.
The groups were stratified for the use of nintedanib or pirfenidone. The screening was done 28 days before Day 1 and the baseline was measured on Day 1. The last dose was on Week 12, and the end of study was on Week 14. The primary and secondary endpoints include safety, tolerability, and PK. Exploratory Endpoints include change in Forced Vital Capacity (FVC) over 12 weeks, High Resolution CT-based Quantitative Lung Fibrosis (QLF) imaging, and effect on selected biomarkers.
The groups were stratified for the use of nintedanib or pirfenidone. The groups were screened 28 days before the Day 1 of the study. At Day 1, baseline values were collected. The study was continued up to Week 48. The treatment duration per protocol is at least 24 weeks and at most 48 weeks. For the study, the primary and secondary endpoints evaluated in the trial were safety, tolerability, and pharmacokinetics. The exploratory endpoints evaluated included the change in FVC over 12 and 24 weeks; high Resolution CT-based Quantitative Lung Fibrosis (QLF) imaging; patient-reported cough severity; and effect on selected biomarkers.

## COCCN(CCCCc1ccc2c(n1)NCCC2)CC[C@H](Nc1ncnc2ccccc12)C(=O)O [Compound 5, (S)-4-((2-methoxyethyl) (4-(5,6,7,8-tetrahydro-1,8-naphthyridin-2-yl)butyl)amino)-2-(quinazolin-4-ylamino) butanoic acid]
40 mg (n = 22), 12 weeks
  Any AEs, % of participants: (72.7) %
  Any AEs, participants reporting: 16 n
  Serious TEAE: 1 n
  Serious TEAE related to study drug: 0 n
  Serious TEAE, % of participants: (4.5) %
  TEAE Diarrhea (any causality), % of participants: (9.1) %
  TEAE Diarrhea (any causality), participants reporting: 2 n
  TEAE Diarrhea related to study drug, % of participants: (4.5) %
  TEAE Diarrhea related to study drug, participants reporting: 1 n
  TEAE Leading to Death: 0 n
  TEAE Leading to Early Termination from Study: 0 n
  TEAE Leading to Interruption of Study Drug: 0 n
  TEAE Leading to Withdrawal of Study Drug: 0 n
  TEAE of CTCAE Grade 3 or Higher: 2 n
  TEAE of CTCAE Grade 3 or Higher related to study drug: 0 n
  TEAE of CTCAE Grade 3 or Higher, % of participants: (9.1) %
  TEAE related to study drug: 4 n
  TEAE related to study drug, % of participants: (18.2) %
  TEAE, % of participants: (72.7) %
  TEAE, participants reporting: 16 n
[1]
  Any AEs, % of participants: 72.7%
  Serious TEAE, % of participants: 4.5%
  TEAE Diarrhea (any causality), % of participants: 9.1%
  TEAE Diarrhea related to study drug, % of participants: 4.5%
  TEAE of CTCAE Grade 3 or Higher, % of participants: 9.1%
  TEAE related to study drug, % of participants: 18.2%
  TEAE, % of participants: 72.7%
80 mg (n = 23), 12 weeks
  Any AEs, % of participants: (65.2) %
  Any AEs, participants reporting: 15 n
  Serious TEAE: 0 n
  Serious TEAE related to study drug: 0 n
  TEAE Diarrhea (any causality), % of participants: (21.7) %
  TEAE Diarrhea (any causality), participants reporting: 5 n
  TEAE Diarrhea related to study drug, % of participants: (13.0) %
  TEAE Diarrhea related to study drug, participants reporting: 3 n
  TEAE Leading to Death: 0 n
  TEAE Leading to Early Termination from Study: 0 n
  TEAE Leading to Interruption of Study Drug: 0 n
  TEAE Leading to Withdrawal of Study Drug: 0 n
  TEAE of CTCAE Grade 3 or Higher: 0 n
  TEAE of CTCAE Grade 3 or Higher related to study drug: 0 n
  TEAE related to study drug: 7 n
  TEAE related to study drug, % of participants: (30.4) %
  TEAE, % of participants: (65.2) %
  TEAE, participants reporting: 15 n
[2]
  Any AEs, % of participants: 65.2%
  TEAE Diarrhea (any causality), % of participants: 21.7%
  TEAE Diarrhea related to study drug, % of participants: 13.0%
  TEAE related to study drug, % of participants: 30.4%
  TEAE, % of participants: 65.2%
160 mg (n = 22), 12 weeks
  Any AEs, % of participants: (68.1) %
  Any AEs, participants reporting: 15 n
  Serious TEAE: 2 n
  Serious TEAE related to study drug: 0 n
  Serious TEAE, % of participants: (9.1) %
  TEAE Diarrhea (any causality), % of participants: (22.7) %
  TEAE Diarrhea (any causality), participants reporting: 5 n
  TEAE Diarrhea related to study drug, % of participants: (18.2) %
  TEAE Diarrhea related to study drug, participants reporting: 4 n
  TEAE Leading to Death: 0 n
  TEAE Leading to Early Termination from Study: 0 n
  TEAE Leading to Interruption of Study Drug: 1 n
  TEAE Leading to Interruption of Study Drug, % of participants: (4.5) %
  TEAE Leading to Withdrawal of Study Drug: 0 n
  TEAE of CTCAE Grade 3 or Higher: 2 n
  TEAE of CTCAE Grade 3 or Higher related to study drug: 1 n
  TEAE of CTCAE Grade 3 or Higher related to study drug, % of participants: (4.5) %
  TEAE of CTCAE Grade 3 or Higher, % of participants: (9.1) %
  TEAE related to study drug: 4 n
  TEAE related to study drug, % of participants: (18.2) %
  TEAE, % of participants: (63.6) %
  TEAE, participants reporting: 14 n
[3]
  Any AEs, % of participants: 68.2%
  Serious TEAE, % of participants: 9.1%
  TEAE Diarrhea (any causality), % of participants: 22.7%
  TEAE Diarrhea related to study drug, % of participants: 18.2%
  TEAE Leading to Interruption of Study Drug, % of participants: 4.5%
  TEAE of CTCAE Grade 3 or Higher related to study drug, % of participants: 4.5%
  TEAE of CTCAE Grade 3 or Higher, % of participants: 9.1%
  TEAE related to study drug, % of participants: 18.2%
  TEAE, % of participants: 63.6%
320 mg (n = 21), 12 weeks
  Any AEs, % of participants: 85.7%
  Any AEs, participants reporting: 18 n
  Serious TEAE: 1 n
  Serious TEAE related to study drug: 0 n
  Serious TEAE, % of participants: 4.8%
  TEAE Diarrhea (any causality), % of participants: 14.3%
  TEAE Diarrhea (any causality), participants reporting: 3 n
  TEAE Diarrhea related to study drug, % of participants: 9.5%
  TEAE Diarrhea related to study drug, participants reporting: 2 n
  TEAE Leading to Death: 1 n
  TEAE Leading to Death, % of participants: 4.8%
  TEAE Leading to Early Termination from Study: 3 n
  TEAE Leading to Early Termination from Study, % of participants: 14.3%
  TEAE Leading to Interruption of Study Drug: 1 n
  TEAE Leading to Interruption of Study Drug, % of participants: 4.8%
  TEAE Leading to Withdrawal of Study Drug: 3 n
  TEAE Leading to Withdrawal of Study Drug, % of participants: 14.3%
  TEAE of CTCAE Grade 3 or Higher: 2 n
  TEAE of CTCAE Grade 3 or Higher related to study drug: 0 n
  TEAE of CTCAE Grade 3 or Higher, % of participants: 9.5%
  TEAE related to study drug: 4 n
  TEAE related to study drug, % of participants: 19.0%
  TEAE, % of participants: 81.0%
  TEAE, participants reporting: 17 n
[4]
  Serious TEAE: 2 n
  Serious TEAE related to study drug: 0 n
  Serious TEAE, % of participants: (9.1) %
  TEAE Cough related to study drug: 0 n
  TEAE Cough, % of participants: (13.6) %
  TEAE Cough, participants reporting: 3 n
  TEAE Diarrhea related to study drug: 4 n
  TEAE Diarrhea related to study drug, % of participants: (18.2) %
  TEAE Diarrhea, % of participants: (31.8) %
  TEAE Diarrhea, participants reporting: 7 n
  TEAE Dyspnoea related to study drug: 0 n
  TEAE Dyspnoea, % of participants: (22.7) %

Reference: US20240122930A1, “INTEGRIN INHIBITORS AND USES THEREOF IN COMBINATION WITH OTHER AGENTS” (Pliant Therapeutics, Inc., priority 2022, published 2024)
